Paper PMC11984586, “A novel spider toxin as a selective antagonist of the Kv1 subfamily of voltage-gated potassium channels through gating modulation” (The Journal of Biological Chemistry, 2025)
Bridge positions count the residues as written; N and C are the ends. Peptide text beside a SMILES is read from it.

Columns and labels:
hKv1.5 = target: T1, hKv1.5 (Homo sapiens, UniProt P22460); test: Whole-cell patch clamp, Kv1.5 ionic current in CHO-K1 cells; format: cell-based; details: +30 mV, 500 ms, holding −80 mV, mean ± SD, n = 4–7, read-out: IC50, inhibition of Kv1.5 current (full inhibition)
T1 construct: expressed in transfected cells; host or cells: CHO-K1
T1 sequence (P22460 whole entry): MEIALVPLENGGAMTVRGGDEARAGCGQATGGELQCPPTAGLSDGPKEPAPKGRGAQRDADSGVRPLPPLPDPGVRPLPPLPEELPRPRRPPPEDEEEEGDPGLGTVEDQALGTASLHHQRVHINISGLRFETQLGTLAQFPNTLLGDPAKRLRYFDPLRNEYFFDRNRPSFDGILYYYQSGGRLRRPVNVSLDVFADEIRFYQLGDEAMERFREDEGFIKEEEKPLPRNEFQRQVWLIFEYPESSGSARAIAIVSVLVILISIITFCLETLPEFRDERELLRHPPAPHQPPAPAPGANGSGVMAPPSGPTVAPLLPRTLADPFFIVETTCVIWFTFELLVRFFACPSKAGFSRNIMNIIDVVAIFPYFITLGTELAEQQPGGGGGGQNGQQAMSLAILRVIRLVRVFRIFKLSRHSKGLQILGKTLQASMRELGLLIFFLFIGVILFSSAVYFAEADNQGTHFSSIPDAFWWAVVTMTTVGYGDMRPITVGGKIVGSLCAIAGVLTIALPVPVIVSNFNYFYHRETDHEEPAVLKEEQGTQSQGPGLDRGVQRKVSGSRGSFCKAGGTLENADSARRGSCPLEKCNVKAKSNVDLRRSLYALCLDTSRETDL
Protocol: The cDNA of hKv1.1, hKv1.2, hKv1.3, rKv1.4, hKv1.5, mKv1.6, and hKv1.7 were subcloned into mammalian expression vectors pcDNA3.1 or pCMV-blank vectors, as well as other plasmids described previously ([35]). Channel mutants were generated by site-directed mutations. Briefly, the parental channel plasmid was amplified using a pair of oppositely directed primers harboring the designed mutation site, with KOD Fx (TOYOBO Co, Ltd). The resulting PCR mix was treated with FastDigest DpnI (Thermo Fisher Scientific) to remove the methylated template. Ten microliters of the digested product was then used to transform 100 μl E. coli DH5α competent cells. […]
CHO-K1 cells were selected for expressing Kv channels due to their lack of endogenous Kv channels, while HEK293 or ND7/23 cells were used for Nav and Cav channel expression. […] After 4 to 6 h transfection, cells were seeded onto poly-lysine–coated coverslips, and 24 to 36 h later, transfected cells were ready for patch-clamp analysis. […]
For Kv current recordings, the bath solution contained (in mM) the following: 140 NaCl, 5 KCl, 1 MgCl2, 2 CaCl2, 10 glucose, and 10 Hepes (pH 7.3, adjusted with NaOH), and the pipette solution contained (in mM) the following: 140 KCl, 2.5 MgCl2, 11 EGTA, and 10 Hepes (pH 7.3, adjusted with KOH). […] The steady-state fast inactivation of Kv1.3 was measured using a two-pulses protocol. […]

[1] = test system: Kv1.1/1.3 S1-S2 chimeric channel; test: Whole-cell patch clamp, chimeric channel; format: cell-based, human; details: +30 mV, mean ± SD
Text: (§1) To investigate the structural determinants underlying the differential regulatory effects of MrVIII on Kv1 channels, we employed a chimeric channel strategy. Using Kv1.3 as the template, the S1-S2, S3-S4, and S5-S6 transmembrane helices and their respective linkers from Kv1.1 were inserted to generate chimeras, generating the Kv1.3/1.1 S1-S2, Kv1.3/1.1 S3-S4, and Kv1.3/1.1 S5-S6 chimeric channels. […] These findings indicate that the S3-S4 is the key determinant for the differential inhibition of Kv1.1 and Kv1.3 by MrVIII. To further validate this conclusion, we constructed a reverse chimeric channel using Kv1.1 as the template, inserting the corresponding regions from Kv1.3 into Kv1.1. […] This finding more directly illustrates the exchange of the channel's voltage-dependence phenotype in toxin inhibition by swapping this S3-S4 between Kv1.1 and Kv1.3. […] In addition to confirming the differential role of S3-S4 between Kv1.1 and Kv1.3, we also substituted the S3-S4 of Kv1.4 and Kv1.7 into Kv1.3 to analyze MrVIII's inhibition profile. […] The IC50 for Kv1.3/1.7 S3-S4 could not be fitted, and inhi%(495 ms) was only 23.1 ± 10.0% (Fig. S2, E and F).
(§2) The cDNA of hKv1.1, hKv1.2, hKv1.3, rKv1.4, hKv1.5, mKv1.6, and hKv1.7 were subcloned into mammalian expression vectors pcDNA3.1 or pCMV-blank vectors, as well as other plasmids described previously ([35]). Channel mutants were generated by site-directed mutations. Briefly, the parental channel plasmid was amplified using a pair of oppositely directed primers harboring the designed mutation site, with KOD Fx (TOYOBO Co, Ltd). The resulting PCR mix was treated with FastDigest DpnI (Thermo Fisher Scientific) to remove the methylated template. Ten microliters of the digested product was then used to transform 100 μl E. coli DH5α competent cells. Transformants were randomly picked and sequenced to confirm the presence of the intended mutation.
(§3) CHO-K1 cells were selected for expressing Kv channels due to their lack of endogenous Kv channels, while HEK293 or ND7/23 cells were used for Nav and Cav channel expression. CHO-K1 cells were cultured in a Dulbecco's modified Eagle's medium/Ham's F-12 nutrient mixture (DMEM-F12) medium, and HEK293T and ND7/23 cells in DMEM medium, all supplemented with 10% fetal bovine serum and 1% penicillin-streptomycin (all from Gibco, Thermo Fisher Scientific, Inc) under standard conditions (37 °C, 5% CO2, and saturated humidity). These cell lines were purchased from Stem Cell Bank, Chinese Academy of Sciences. Channel plasmids were cotransfected with pEGFP-N1 (encoding GFP) into the respective cells using lipofectamine 2000, following the manufacturer's instructions (Invitrogen, Thermo Fisher Scientific, Inc.). Nav1.9-GFP plasmid was transfected into ND7/23 using the X-tremeGENE HP DNA Transfection Reagent (Roche). After 4 to 6 h transfection, cells were seeded onto poly-lysine–coated coverslips, and 24 to 36 h later, transfected cells were ready for patch-clamp analysis.
(§4) Patch clamp experiments were conducted using an electrophysiology platform comprising a MultiClamp 700B amplifier and an Axon Digidata 1550 AD/DA convertor (Axon Instruments). Data acquisition was performed with pClamp 10.5 software (Axon Instruments). All experiments were performed at room temperature.
(§5) For Kv current recordings, the bath solution contained (in mM) the following: 140 NaCl, 5 KCl, 1 MgCl2, 2 CaCl2, 10 glucose, and 10 Hepes (pH 7.3, adjusted with NaOH), and the pipette solution contained (in mM) the following: 140 KCl, 2.5 MgCl2, 11 EGTA, and 10 Hepes (pH 7.3, adjusted with KOH). Series resistance was maintained below 10 MΩ and compensated to 80%. Concentration–response curves were fitted by the Hill equation to determine the toxin's potency. Whole cell conductance (G) at each depolarizing voltage (V) was determined using the equation: G = I/(V−Vrev), where I is the current amplitude, and Vrev is the reversal potential. […]

[2] = test system: Kv1.1/1.3 S3-S4 chimeric channel; test: Whole-cell patch clamp, chimeric channel; format: cell-based, human; details: +30 mV, 500 ms, mean ± SD, n = 4-5, read-out: IC50, Kv1.1/1.3 S3-S4 current (complete inhibition)
Text: as §1, §2, §3, §4, §5

[3] = test system: Kv1.3/1.1 S1-S2 chimeric channel; test: Whole-cell patch clamp, chimeric channel; format: cell-based, human; details: +30 mV, 500 ms, holding −80 mV, mean ± SD, n = 4-5, read-out: IC50, Kv1.3/1.1 S1-S2 current
Text: as §1, §2, §3, §4, §5

[4] = test system: Kv1.3/1.1 S3-S4 chimeric channel; test: Whole-cell patch clamp, chimeric channel; format: cell-based, human; details: +30 mV, mean ± SD
Text: as §1, §2, §3, §4, §5

CC[C@H](C)[C@@H]1NC(=O)[C@H](Cc2ccc(O)cc2)NC(=O)[C@H](CCC(N)=O)NC(=O)[C@@H]2CCCN2C(=O)[C@@H]2CSSC[C@H](NC(=O)[C@H](C)NC(=O)[C@H](CO)NC(=O)[C@H](CCC(=O)O)NC(=O)[C@H](CCC(=O)O)NC(=O)[C@@H](N)[C@@H](C)O)C(=O)NCC(=O)NCC(=O)N[C@@H](Cc3ccccc3)C(=O)N[C@@H](CC(N)=O)C(=O)N[C@@H](C)C(=O)N[C@@H](CCCNC(=N)N)C(=O)N[C@H]3CSSC[C@H](NC1=O)C(=O)N[C@@H](CCCCN)C(=O)NCC(=O)N[C@@H](Cc1c[nH]c4ccccc14)C(=O)N[C@@H](CCCNC(=N)N)C(=O)N[C@@H]([C@@H](C)O)C(=O)N[C@@H](CCCCN)C(=O)N[C@@H](CCCNC(=N)N)C(=O)N[C@H](C(=O)N[C@@H](CC(C)C)C(=O)N[C@@H](CC(N)=O)C(=O)N1CCC[C@H]1C(=O)O)CSSC[C@H](NC(=O)[C@H](CCCCN)NC(=O)[C@H](Cc1c[nH]cn1)NC(=O)[C@H](CC(C)C)NC(=O)[C@@H]1CCCN1C3=O)C(=O)N2 [MrVIII] (H-TEESACGGFNARCPLHKCCPQYICKGWRTKRCLNP-OH; disulfide 6-19, 13-24, 18-32; N-terminus and C-terminus assumed)
IC50 (hKv1.5): 5.7 ± 2.2 nM | IC50 ([1]; current at 50 ms, n = 4-5): 103 ± 59.1 nM | inhi%(495 ms), Kv1.1/1.3 S1-S2 current ([1]; current at 495 ms): 60.5 ± 18.5% | IC50 [2]: 1.7 ± 0.6 nM | IC50 [3]: 1.9 ± 1.1 nM | IC50 ([4]; current at 50 ms, n = 4-5): 230 ± 123 nM | inhi%(495 ms), Kv1.3/1.1 S3-S4 current ([4]; current at 495 ms, negative = current enhanced): −10.0 ± 13.9%
